Read-outs that look alike come from different tables or passages of the source.

One series deals with spiral ganglion neurons. Description: In vitro spiral ganglion neurite outgrowth. It is filed as cell-based, CBA/CaJ pups. Conditions: 400 nM, 48 hours. On the procedure:
Cochleae were harvested from P3-4 CBA/CaJ pups, after which the spiral ganglion neurons were sharply dissected free in a clump of cells, divided into three roughly equal sections, and plated with fibronectin on Dulbecco's Modified Eagle's medium (DMEM). Individual sections were then treated with media alone, 400 nM DHF, 400 nM RIS, or 400 nM DHF-RIS (Example 1) for 48 hours. After fixing and immunostaining with TUJI, the neurites were visualized under confocal microscopy and the neurite length quantified using ImageJ.

A further series concerns ribbon synapses. In words: Ribbon synapse regeneration in organ of Corti explants after kainic acid. It is filed as cell-based. Conditions: 400 nM after two hours kainic acid. On the procedure: To characterize the ability of DHF-RIS to regenerate ribbon synapses, a previously described organ of Corti explant system was used, wherein kainic acid was used to mimic excitotoxic damage to the ribbon synapse (see e.g., Wang et al, 7The Journal of Neuroscience: the official journal of the Society for Neuroscience, 2011, 31:7938-7949). Explants were treated with kainic acid for two hours to destroy synapses and then treated with 400 nM DHF, 400 nM RIS, or […] DHF-RIS (Example 1). Comparison was made with control samples not treated with kainic acid (KA−) and samples treated with kainic acid but no other drug (KA+). Synapses were detected by co-localization of CtBP2 and PSD95 as previously described and counted using the Amira program by an observer blinded to sample identity.

A further series relates to SG neurites. In words: In vitro attraction of SG neurites after pre-binding to hydroxyapatite. It is filed as cell-based. On the procedure:
This assay was performed to confirm that the DHF moiety within DHF-RIS (Example 1) remained available to attract neurites from a distance after binding to hydroxyapatite, a mineral substitute for bone. In a modification of the data shown in FIG. 14A, a separate set of experiments was performed in which RIS-DHF was pre-bound to hydroxyapatite pellets. The pellets were washed with media, and plated along with SGN explants. To visualize the hydroxyapatite pellets, a small amount of 6-FAM-ZOL (Example 4) was added to all samples. It was observed that neurites traveled up to […] before ending on and overlapping with hydroxyapatite pellets, as shown in FIG. 14C.

Series [1] in a line: 6-FAM-ZOL infusion into the scala tympani via cochleostomy: cochlear fluorescence. It is filed as in vivo, guinea pig.
Experimental: All animals were therefore analyzed after maximal bisphosphonate deposition. […] Intracochlear delivery animals were analyzed at 3 hours as this timepoint allowed for high levels of delivery while avoiding the potential long-term effects of a cochleostomy.
The inner ears were harvested and stripped of soft tissue. All subsequent steps were performed in covered vials to prevent 6-FAM-ZOL bleaching. Specimens were fixed in an excess volume of neutral buffered formalin (10%, Fisher Scientific, Pittsburgh PA) at room temperature for 24 hours. The neutral buffered formalin was changed and fixation continued for another 24 hours. To prepare for resin embedding, specimens were dehydrated in an ascending series of ethanol (Fisher Scientific, 24 hr at 70%, 1 hr at 70%, 1 hr at 85%, 0.5 hr at 95%, 0.5 hr at 100%) followed by a wash in xylene (Fisher Scientific) and a 15 minute immersion in xylene. Specimens were cleared of xylene by a 1 hour infiltration in methyl methacrylate (MMA, Acrylosin soft, Dorn and Hart, Villa Park, IL) under vacuum. The MMA solution was changed and samples were infiltrated for 24 hours under vacuum. The infiltration solution was changed and the process was repeated for another 24 hours. Specimens were embedded in a solution of MMA containing 0.25% w/v (2.5 g/L) of perkadox-16 (Dom and Hart) for several hours under vacuum. […]
High-resolution images (1360 by 1024; 16 bit) were taken under FITC illumination (470/40 excitation, 4951p dicroic; 525/50 emission) using a Carl Zeiss Axiovert 200 Inverted Microscope. ImageJ (Rasband WS, ImageJ, United States National Institutes of Health, Bethesda, Maryland, USA, 1997-2014) was used to quantify the amount of fluorescence within the cochlear wall and modiolus at each half-turn, as shown in FIG. 1. Background fluorescence, defined as the average amount of fluorescence in an area of the resin block containing no sample, was subtracted from all measurements. […] Confocal images were collected over a depth of 500 μm to generate maximum fluorescence images. […]
Series [2] can be described thus: Hearing measurements (ABR, DPOAE) after systemic 6-FAM-ZOL. It is filed as in vivo, guinea pig.
Experimental: ABRs were recorded via subdermal needle electrodes (vertex—ventrolateral to the pinna of the test ear with a ground at the base of the tail). The CAPs electrode was located near the round window niche. Sound level was incremented in 5 dB steps, from ˜10 dB below threshold to 90 dB sound pressure level (SPL). Threshold for ABRs and CAPs was defined as the lowest stimulus level at which a repeatable wave could be identified in the response waveform.
Distortion product otoacoustic emissions (DPOAEs) were recorded for primary tones (f1, f2) over the same f2 range of frequencies, with a frequency ratio of 1.2, and with the level of the f2 primary 10 dB less than f1 level. Primaries were incremented together in 5 dB steps from −10 dB below threshold to 80 dB SPL. Ear-canal sound pressure was amplified and digitally sampled, FFTs were computed and averaged, and the 2f1-f2 DPOAE and surrounding noise floor were extracted. Iso-response contours were interpolated from plots of response amplitude vs. sound level. Threshold is defined as the f1 level required to produce a DPOAE of −5 dB SPL.
Distortion product otoacoustic emissions (DPOAEs) and auditory brainstem responses (ABRs) were measured in the systemic and round window membrane (RWM) delivery experiments. […] Hearing was measured at 2.78, 4, 5.6, 8, 12, 16, 24, and 32 kHz. […]
Series [3] can be described thus: Hearing measurements (CAP, DPOAE) after cochleostomy infusion. It is filed as in vivo, guinea pig.
Experimental: For the cochleostomy experiments, compound action potentials (CAPs) from the auditory nerve were substituted for ABRs.
A cochleostomy was performed approximately 0.5 mm distal to the round window via a bullectomy approach and the PTFE tubing was inserted into the scala tympani. Dental cement was used to seal the cochleostomy around the tubing. Infusion was performed at 1 μL over one minute, five times, spaced nine minutes apart. Control animals were treated with AP alone; 0.02× dosage animals were infused with 6-FAM-ZOL at 0.25 μg/μL; and 0.04× dosage animals were infused with 6-FAM-ZOL at 0.125 μg/μL+0.193 μg/μL zoledronate (total 4% of the 1× human zoledronate dose by molar weight). DPOAEs and CAPs were measured at time 0 (i.e., after cannula insertion and prior to infusion) and at 3 hrs. In independent experiments, three control animals were treated with AP alone, four animals were treated with AP containing 0.02× 6-FAM-ZOL, and three animals were treated with AP containing 0.04× 6-FAM-ZOL+zoledronate.
Series [4] is described as follows: Hearing measurements (ABR, DPOAE) after RWM 6-FAM-ZOL. It is filed as in vivo, guinea pig. An excerpt:
Acoustic stimuli were digitally generated and auditory responses were monitored using a National Instruments PXI stimulus generation/data acquisition system, which included a 24 bit digital I-O board (PXI-4461) and a 16 bit digital I-O board (PXI-6221) and the Eaton Peabody Laboratories Cochlear Function Test Suite. To elicit the auditory brainstem responses (ABRs) and the compound action potentials (CAPs), 5 ms tone pip stimuli were used with 0.5 ms rise/fall times (cosine squared) in alternating polarity at 33/s.
Acoustic stimuli were delivered via a custom acoustic assembly comprising two dynamic drivers as sound sources and a miniature electret microphone to measure sound pressure in situ (for a complete description, see e.g., http://www.masseyeandear.org/research/otolaryngology/investigators/laboratories/eaton-peabody-laboratories/ep1-engineering-resources). The response from the electrodes was amplified (10,000×), filtered (0.3-3 kHz bandpass), and averaged (512 samples at each frequency-level combination for ABRs and 128 samples for CAPs).
ABRs were recorded via subdermal needle electrodes (vertex—ventrolateral to the pinna of the test ear with a ground at the base of the tail). The CAPs electrode was located near the round window niche. […]
Distortion product otoacoustic emissions (DPOAEs) were recorded for primary tones (f1, f2) over the same f2 range of frequencies, with a frequency ratio of 1.2, and with the level of the f2 primary 10 dB less than f1 level. […]
Distortion product otoacoustic emissions (DPOAEs) and auditory brainstem responses (ABRs) were measured in the systemic and round window membrane (RWM) delivery experiments. […] Hearing was measured at 2.78, 4, 5.6, 8, 12, 16, 24, and 32 kHz.
The round window was visualized via a bullectomy approach and the beads were placed within the round window membrane (RWM) niche under direct microscopic visualization. […] DPOAEs and ABRs were first measured while animals were under anesthesia prior to bullectomy and again prior to analysis.

A short description of series [5]: Round window membrane (RWM) alginate bead delivery of 6-FAM-ZOL: cochlear fluorescence. It is filed as in vivo, guinea pig.
Experimental: All animals were therefore analyzed after maximal bisphosphonate deposition. […] Round window delivery animals were analyzed at 3 weeks to allow middle ear inflammation to subside prior to hearing analysis and to account for transit across the RWM.
The inner ears were harvested and stripped of soft tissue. All subsequent steps were performed in covered vials to prevent 6-FAM-ZOL bleaching. Specimens were fixed in an excess volume of neutral buffered formalin (10%, Fisher Scientific, Pittsburgh PA) at room temperature for 24 hours. The neutral buffered formalin was changed and fixation continued for another 24 hours. To prepare for resin embedding, specimens were dehydrated in an ascending series of ethanol (Fisher Scientific, 24 hr at 70%, 1 hr at 70%, 1 hr at 85%, 0.5 hr at 95%, 0.5 hr at 100%) followed by a wash in xylene (Fisher Scientific) and a 15 minute immersion in xylene. Specimens were cleared of xylene by a 1 hour infiltration in methyl methacrylate (MMA, Acrylosin soft, Dorn and Hart, Villa Park, IL) under vacuum. The MMA solution was changed and samples were infiltrated for 24 hours under vacuum. The infiltration solution was changed and the process was repeated for another 24 hours. […]
High-resolution images (1360 by 1024; 16 bit) were taken under FITC illumination (470/40 excitation, 4951p dicroic; 525/50 emission) using a Carl Zeiss Axiovert 200 Inverted Microscope. ImageJ (Rasband WS, ImageJ, United States National Institutes of Health, Bethesda, Maryland, USA, 1997-2014) was used to quantify the amount of fluorescence within the cochlear wall and modiolus at each half-turn, as shown in FIG. 1. Background fluorescence, defined as the average amount of fluorescence in an area of the resin block containing no sample, was subtracted from all measurements. Fluorescence remained stable over at least two weeks after grinding if samples were kept in the dark at room temperature. […] Confocal images were collected over a depth of 500 μm to generate maximum fluorescence images. […]
Series [6] can be described thus: Human temporal bone model: 6-FAM-ZOL delivery through the oval window. How it is done:
6-FAM-ZOL was synthesized as described in Example 4 and was dissolved in artificial perilymph (AP) at a concentration of 10 μg/μL. The content of AP (pH 7.4) was 130 mM NaCl, 3.5 mM KCl, 1.5 mM CaCl2, 5.5 mM glucose, and 20 mM HEPES.
Six freshly harvested cadaveric human temporal bones, which were obtained within 24 hours after death by the human temporal bone histopathology lab at Massachusetts Eye and Ear Infirmary, were used. The Pathology Quality Assurance Committee at Massachusetts General Hospital approved procurement of the specimens. The squamous and mastoid portions were drilled away, leaving the labyrinth. In three temporal bones, 1 μL of 10 μg/μL 6-FAM-ZOL was injected through the OW using a micropipette after lifting the stapes footplate. The footplate was then carefully laid back down. […]
Images (1024 by 1024; 8 bit) were collected using a Leica TCS-SP2 confocal microscope to generate maximum fluorescence images. To identify the surface of each specimen, the point of maximum fluorescence in the z-axis was first identified. A stack of images was then collected to a depth of 500 μm from the point of maximum fluorescence. […] ImageJ was used to quantify the amount of fluorescence associated with the labeled bisphosphonate within the lateral cochlear wall and the modiolus of the scala vestibuli and scala tympani at each half-turn, as shown in FIG. 11. […]

Series [7] is classed as in vivo.
Experimental: Male albino guinea pigs (Hartley strain; Charles River Laboratories, Inc., Wilmington, MA), each weighing approximately 350 g, were used. Nembutal (12.5 mg/kg intraperitoneally), Fentanyl (0.1 mg/kg intramuscularly), and Droperidol (5 mg/kg intramuscularly) were given for anesthesia. Supplemental doses of 0.7 mg/kg Fentanyl and 3.0 mg/kg Droperidol alternating with 6.25 mg/kg Nembutal were administered as needed. Animals were euthanized using pentobarbital (Fatal-Plus) at 390 mg/kg. The Massachusetts Eye and Ear Infirmary Institutional Animal Care and Use Committee approved all procedures.
All animals were therefore analyzed after maximal bisphosphonate deposition. Systemic delivery animals were analyzed at 48 hrs to account for potential differences between IP (our system) and IV (human) delivery.
The inner ears were harvested and stripped of soft tissue. All subsequent steps were performed in covered vials to prevent 6-FAM-ZOL bleaching. Specimens were fixed in an excess volume of neutral buffered formalin (10%, Fisher Scientific, Pittsburgh PA) at room temperature for 24 hours. The neutral buffered formalin was changed and fixation continued for another 24 hours. To prepare for resin embedding, specimens were dehydrated in an ascending series of ethanol (Fisher Scientific, 24 hr at 70%, 1 hr at 70%, 1 hr at 85%, 0.5 hr at 95%, 0.5 hr at 100%) followed by a wash in xylene (Fisher Scientific) and a 15 minute immersion in xylene. Specimens were cleared of xylene by a 1 hour infiltration in methyl methacrylate (MMA, Acrylosin soft, Dorn and Hart, Villa Park, IL) under vacuum. The MMA solution was changed and samples were infiltrated for 24 hours under vacuum. The infiltration solution was changed and the process was repeated for another 24 hours. Specimens were embedded in a solution of MMA containing 0.25% w/v (2.5 g/L) of perkadox-16 (Dom and Hart) for several hours under vacuum. After several hours, specimens were sealed in 50 mL polypropylene tubes and maintained at room temperature in a heat sink until fully cured (approximately 5 days).
Sections were prepared for fluorescent imaging by orienting and grinding the sample surface to the level of the mid-modiolus. Surfaces were polished on a 12″ table mounted rotary wheel using water and a progressively finer series of silicon carbide abrasive papers ending with 2400 grit (Buehler, Lake Bluff, 11).
High-resolution images (1360 by 1024; 16 bit) were taken under FITC illumination (470/40 excitation, 4951p dicroic; 525/50 emission) using a Carl Zeiss Axiovert 200 Inverted Microscope. ImageJ (Rasband WS, ImageJ, United States National Institutes of Health, Bethesda, Maryland, USA, 1997-2014) was used to quantify the amount of fluorescence within the cochlear wall and modiolus at each half-turn, as shown in FIG. 1. Background fluorescence, defined as the average amount of fluorescence in an area of the resin block containing no sample, was subtracted from all measurements. Fluorescence remained stable over at least two weeks after grinding if samples were kept in the dark at room temperature. Some images were also collected using a Leica TCS-SP2 confocal microscope. Confocal images were collected over a depth of 500 μm to generate maximum fluorescence images.
Mixed model analysis of variance was used to analyze the effect of dose on fluorescent response in the cochlea.
For series [8] the following is noted: humans, cited from earlier work.
Where [9] appears, read: systemic 1× and 3× doses, 48 hrs.
The mark [10] stands for this setting: 0.02× cochleostomy infusion, 3 hrs, relative to control animals.
The mark [11] stands for this setting: three weeks after placement on the RWM.
[12] abbreviates: 1× systemic dose (0.185 mg/kg IP), 48 hrs.
Where [13] appears, read: control, 1× and 3× systemic doses.

`O=C(CCOCCOCCOCCOCCNC(=O)c1ccc(-c2cc(=O)c3ccc(O)c(O)c3o2)cc1)NCC(O)C[n+]1cccc(CC(O)(P(=O)(O)O)P(=O)(O)O)c1` (stereo not drawn) [DHF-RIS]: the “neurite outgrowth (neurite length)” value with spiral ganglion neurons is recorded as “significant outgrowth”. In addition, the “regeneration of ribbon synapses” value in the series on ribbon synapses is on record as “significant regeneration compared to non-rescued explants, although less than native DHF”. In addition, in the series with SG neurites (conjugate pre-bound to hydroxyapatite pellets), the “distance neurites traveled before ending on hydroxyapatite pellets” value was “up to 400 μM”. The “attraction of SG neurites after pre-binding to hydroxyapatite” value in the series on SG neurites (in vitro) is “available to attract SG neurites”.
Take `O=C(NCC(O)C[n+]1ccn(CC(O)(P(=O)(O)O)P(=O)(O)O)c1)c1ccc(C(=O)O)c(-c2c3ccc(=O)cc-3oc3cc(O)ccc23)c1` (stereo not drawn) [Example 6-FAM-ZOL]: the “total average fluorescence of the lateral wall vs control” value in [1] (0.2× dose (so in the source)) is given as “significantly greater”. For the same compound, the “total average fluorescence of the modiolus vs control” value in series [1] (0.2× treatment (so in the source)) is on record as “significantly greater”. Moreover, the “fluorescent signal along osseous spiral lamina of the modiolus and lateral wall of the cochlea” value in [1] (2% (0.02×) of the 1× systemic dose, 3 hours) is listed as “bright fluorescent signal”. Further, in series [2] (setting [9]), the ABR change entry is “No significant physiological changes” and the DPOAE change result is listed as “No significant physiological changes”. Besides, the ototoxicity entry in series [2] (systemic treatment) is “non-ototoxic”. In series [3] (setting [10]), the “additional CAP shift” value was 10-15 dB and the “additional DPOAE shift” value was 10-15 dB. Besides, the immediate ototoxicity result in [3] (direct infusion into the cochlea) is on record as “without significant immediate ototoxicity”. The ototoxicity entry in series [4] (local delivery onto the RWM) is reported as “not ototoxic”. In series [4] (setting [11]), the ABR shift result was “no shifts” and the DPOAE shift result is “no shifts”. Moreover, the cochlear fluorescence result in [5] (0.1× dose on RWM, 3 weeks) is “lower, but still detectable”. Besides, in [5] (0.3× dose in alginate bead on RWM, 3 weeks), the “delivery throughout the lateral wall of the cochlea (fluorescence)” value is given as “comparable to the 1× systemic dose”. The “levels of fluorescence in modiolus and lateral wall vs control” value in series [5] (RWM delivery 0.1× and 0.3×) is “significantly higher than the control”. Further, the “fluorescent signal in bony walls of the vestibular capsule and the cochlea” value in [6] (1 μL of 10 μg/μL through the oval window, 4 days) is “strong fluorescent signal”. The “effect of dose (6-FAM-ZOL vs artificial perilymph) on fluorescence, lateral wall and modiolus, scala vestibuli and scala tympani” value in series [6] (all p<0.05) is given as “significant effect of dose”. Further, the “average fluorescence stronger in tibiae compared to cochleae” value in [7] (1× systemic dose) came out at 50%. In addition, in series [7] (setting [12]), the “average fluorescence above control, cochleae” value is “approximately 5,800 fluorescence units” and the “average fluorescence above control, tibiae” value was ~8,800 fluorescence units. In addition, in series [7] (setting [13]), the “fluorescence in lateral wall of cochleae” value is “increased with dose and the differences were statistically significant”; the fluorescence in tibiae result was “dose-dependent and statistically significant”.
Regarding `O=P(O)(O)C(O)(Cc1cccnc1)P(=O)(O)O` [RIS, reference compound], the “regeneration of ribbon synapses” value with ribbon synapses is on record as “some ability to regenerate synapses”.
With `O=P(O)(O)C(O)(Cn1ccnc1)P(=O)(O)O` [zoledronate], the “drug remaining in plasma” value in series [8] (after 24 hours) is listed as “less than 1%”. Besides, the plasma half-life is 12 min in series [8] (first of two half-lives) and 84 min in series [8] (second of two half-lives).
